For one molecule, ED50 results are on record in US5401748A, “2,14-disubstituted ergolines, their production and use in pharmaceutical compositions” (Schering Aktiengesellschaft, priority 1991, dated 1995).

One may read the ED50 as the dose that gives a 50% effect, or the effect in half of the subjects.

In the experiment the test system is central dopamine receptors. Nature of the experiment: Stereotypy-triggering activity in rats after one-time i.p. pretreatment (method of Horowski and Wachtel). Format: in vivo, female Wistar rats. Conditions: ip, rat. The protocol: The dopaminergic agonistic effect is determined, for example, with the help of method, described by Horowski and Wachtel, of the registration of stereotypies by observation of behavior (Eur. J. Pharmacol. 36: 373-383, 1976):
Immediately after intraperitoneal test substance or vehicle administration,female Wistar rats (90-110 g) are placed individually in observation cages made from transparent acrylic glass (25×19×13.5 cm). At 30, 60, 120, 240, 360 and 480 minutes after pretreatment, the presence of behavior stereotypies (chewing, licking, gnawing) is registered by observation of the animals for 2 minutes (i.e., of 30th-32nd, 60th-62nd, 120th-122nd minutes, etc.). Animals which during the 2-minute observation period show continuous chewing, licking and gnawing movements (longer than 30 seconds) are considered stereotypic.
The number of animals per treatment group with behavior stereotypies is determined during the various observation times. The different treatment groups consist of n=8 animals each. Average effective dose (ED50) is determined with 95% range of confidence for the various observation times with the help of probit analysis.
At 30, 60, 120, 240, 360 and 480 minutes after i.p. pretreatment with test substance or vehicle, the presence of behavior stereotypies in rats (chewing, licking, gnawing) was determined by observation for 2 minutes (i.e., of 30th-32nd, 60th-62nd, 120th-122nd minutes, etc.).

In the case of `CCCN1C[C@@H](NC(=O)N(CC)CC)C[C@@H]2c3ccc(C)c4[nH]c(C)c(c34)C[C@H]21` [3-(2,14-Dimethyl-6-propyl-8α-ergolinyl)-1,1-diethylurea], the ED50 is 0.055 mg/kg (0.5 h, 30 min, n=8, 95% range of confidence by probit analysis); less than 0.025 mg/kg (1 h, 60 min, n=8, probit analysis); less than 0.025 mg/kg (2 h, 120 min, n=8, probit analysis); less than 0.025 mg/kg (4 h, 240 min, n=8, probit analysis); 0.071 mg/kg (6 h, 360 min, n=8, 95% range of confidence by probit analysis); 0.072 mg/kg (8 h, 480 min, n=8, 95% range of confidence by probit analysis).
